Results on two compounds are retold here after patent US10837058B2, “Markers of papillary and reticular fibroblasts and uses thereof” (CHANEL PARFUMS BEAUTE, priority 2011, dated 2020).

What all share (type): cell-based, human
Assay [1] deals with reticular or papillary fibroblasts. Kind of assay: Compound screening on reticular or papillary fibroblasts, qPCR of 3 papillary and 3 reticular markers. To be noted: high=0.01% v/v, low=0.0001% v/v, 24 hrs; CCRL1, NTN1, PDPN, MGP, PPP1R14A, TGM2; FIG. 2. The procedure:
The fibroblasts were isolated and cultured as described above (example 1).
12000 reticular or papillary fibroblasts were seeded in 12 well culture plates (Costar). The fibroblasts were cultured for 5 days until 90% of the surface area was covered. Two different concentrations (low/high) of compounds were applied for 24 hrs. Pictures were taken before and after application. No differences in morphology and were observed (data not shown). RNA was isolated as described in example 1.
qPCR analysis was performed using 3 papillary (CCRL1, NTN1 and PDPN) and 3 reticular (MGP, PPP1R14A and TGM2) markers, according to example 1. The expression was normalized using two reference genes (SND1 and EI24). The effect of verbascoside was determined by comparing the expression of the genes to the expression of vehicle treated fibroblasts.

The test system of assay [2] is papillary fibroblasts. Kind of assay: TGF-β1 treatment of monolayer papillary fibroblasts, marker expression by qPCR. To be noted: TGF-β1 2 or 10 ng/mL, 2 or 4 days. The procedure:
cDNA was generated of 1 μg RNA using the iScript cDNA synthesis kit (BioRad, Veenendaal, The Netherlands) according to manufacturer's instructions. PCR reactions were based on the SYBR Green method (BioRad) and consisted of 2× Sybr Green Mastermix, 1 ng cDNA template and 500 nM of forward and reverse primers. The PCRs were run on the MyIQ system (BioRad). The PCR cycles were: 3,5 minutes at 95 C to activate the polymerase, 35 cycles of 20 sec 95 C and 40 sec 60 C, followed by the generation of a melt curve. Primers were checked before on dilution series of normal fibroblasts cDNA. References genes were analyzed with the GeNorm method (20). Expression analysis was performed with the BioRad Software (iQ5) and was based on the delta delta Ct method with the reference genes that were most stably expressed in the GeNorm analysis.
(§1) Monolayer cultures of papillary fibroblasts were treated with TGF-β1, 2 or 10 ng/mL, for 2 or 4 days. Then the expression of the reticular and papillary markers was measured by qPCR and by IHC staining on the cultures.

The test system of assay [3] is papillary fibroblasts. Put plainly: TGF-β1 treatment of monolayer papillary fibroblasts, IHC staining and morphology. To be noted: TGF-β1 2 or 10 ng/mL, 2 or 4 days. The procedure:
For IHC on monolayer cell cultures, fibroblasts were grown on glass slides until nearly confluent, washed in PBS and fixed with 4% formaldehyde. Staining was visualized by a secondary antibody with a fluorescent dye (Cy3). DAPI was used as counterstain.
as §1

As for `C[C@@H]1O[C@@H](O[C@@H]2[C@@H](O)[C@H](OCCc3ccc(O)c(O)c3)O[C@H](CO)[C@H]2OC(=O)/C=C/c2ccc(O)c(O)c2)[C@H](O)[C@H](O)[C@H]1O` [Verbascoside], in assay [1], the “effect on reticular/papillary marker gene signature (qPCR, vs vehicle treated fibroblasts)” value is on record as “able to alter the reticular signature into a papillary signature”.
Consider “TGF-β1: TGF-β1, can induce differentiation of fibroblasts to myofibroblasts”, for which the “differentiation of papillary fibroblasts as measured by qPCR” value in the assay with papillary fibroblasts [2] (monolayer cell cultures) is “caused differentiation to reticular fibroblasts”. Also, in the assay with papillary fibroblasts [2] (data not shown), the “expression of papillary markers (qPCR)” value is recorded as “decreased” and the “expression of reticular markers (qPCR)” value is “increased”. Moreover, in the assay with papillary fibroblasts [3], the “myofibroblast differentiation: a-SMA expression” value is given as “increased a-SMA expression”, the “myofibroblast differentiation: morphological changes” value is recorded as “increase in cell size”, the “papillary marker PDPN by IHC staining” value was “loss of papillary marker PDPN” and the “reticular marker TGM2 by IHC staining” value is listed as “gain of reticular marker TGM2”.
